# PMC9606943, “Synthesis and Chemopreventive Potential of 5-FU/Genistein Hybrids on Colorectal Cancer Cells” (Pharmaceuticals, 2022)
# Key:
# [1] = test system: SW480; experiment: Sulforhodamine B cytotoxicity assay, SW480; assay type: cell-based, human; conditions: 48 h; for IC50: mean ± SE
# Method: (§1) Two colon cancer cells (SW480 and SW620) and non-malignant cell lines (human keratinocytes, HaCaT; chinese hamster ovary, CHO-K1) were obtained from The European Collection of Authenticated Cell Cultures (ECACC, England). For biological evaluations, cells were cultured in Dulbecco’s Modified Eagle Medium, supplemented with 10% heat-inactivated (56 °C) horse serum, 1% penicillin/streptomycin and 1% non-essential amino acids (Gibco Invitrogen, Carlsbad, CA, USA). During the treatments, the serum was reduced to 3%, and the medium was supplemented with insulin ([…]) transferrin ([…]) and selenium (5 ng/mL) (ITS-defined medium; Gibco, Invitrogen, Carlsbad, USA). To avoid Mycoplasma spp. contamination, cell cultures were regularly tested by polymerase chain reaction.
# (§2) Briefly, cells were seeded at 20,000 cells/well (for cytotoxicity assay) and 2500 cells/well (for the antiproliferative test) in 96-well tissue culture plates, incubating at 37 °C in a humidified atmosphere with 5% CO2. After the adaptation time (24 h), cells were treated with increasing concentrations of the hybrid molecules or DMSO (1%). At the end of each treatment, cells were fixed with trichloroacetic acid (50% v/v; MERCK) for one hour at 4 °C. Subsequently, cell proteins were stained with SRB (0.4% w/v; Sigma-Aldrich, United States) and washed with acetic acid (1%). After drying at room temperature, Tris-base (10 mM) was added to solubilize protein bound stain. Absorbance was read in a microplate reader (Mindray MR-96A) at 492 nm. All experiments were performed at least in duplicate.
# [2] = test system: SW620; experiment: Sulforhodamine B cytotoxicity assay, SW620; assay type: cell-based, human; conditions: 48 h; for IC50: mean ± SE
# Method: as §1, §2
# [3] = test system: HaCaT; experiment: Sulforhodamine B cytotoxicity assay, HaCaT; assay type: cell-based, human; conditions: 48 h, mean ± SE, non-malignant cells
# Method: as §1, §2
# [4] = test system: CHO-K1; experiment: Sulforhodamine B cytotoxicity assay, CHO-K1; assay type: cell-based, chinese hamster; conditions: 48 h, mean ± SE, non-malignant cells
# Method: as §1, §2
# [5] = test system: SW620; experiment: Antiproliferative activity (sulforhodamine B), SW620; assay type: cell-based, human; conditions: dose- and time-dependent, from day 2 above 12.5 µM, from day 4 at 6.25 µM
# Method: as §2
# [6] = test system: SW620 cells; experiment: Cell cycle distribution (PI, flow cytometry), SW620; assay type: cell-based, human; conditions: 48 h, IC50 concentration, versus DMSO control
# Method: (§3) Cell cycle analysis was evaluated by flow cytometry using propidium iodide (PI). This experiment was carried out as previously described by Nicoletti et al. (1991). Then, 48 h after treatment with the IC50 value of the hybrids 4a, 4g and DMSO (1%) as a vehicle control, cells were collected by scraping and centrifugation, resuspending the cell pellet in a versene buffer. Thereafter, cells were fixed with 1.8 mL cold ethanol (70%) at 4 °C overnight. Alcohol was removed by subsequent washing twice with versene buffer. The final pellet was resuspended in 300 µL of PBS with 0.25 mg/mL RNAse (Type I-A, Sigma-Aldrich, Germany) and 0.1 mg/mL PI and incubated for 30 min in the dark at room temperature. FACS Canto II flow cytometer (BD Biosciences, USA) was used to read the PI fluorescence of 10,000 events. The analysis of data was performed with the software FlowJo 7.6.2 (Ashland, OR, USA).
# [7] = test system: SW620 cells; experiment: Mitochondrial membrane potential and plasma membrane integrity (DiOC6/PI), SW620; assay type: cell-based, human; conditions: 48 h, IC50 concentration
# Method: (§4) The fluorescent dyes DiOC6 (3,3′-dihexyloxacarbocyanine iodide, Thermo Fisher Scientific, Waltham, MA, USA) and propidium iodide (PI) were used to evaluate possible changes in mitochondrial membrane potential induced by the hybrid molecules. Then, 2.5 × 10^5 cells/well were seeded in 6-well tissue culture plates and allowed to grow for 24 h. Then, these were treated with hybrids 4a and 4g (with the IC50 value for each compound). Cells were harvested by scrapping 48 h after treatment, stained with DiOC6 and propidium iodide (PI) at room temperature for 30 min in darkness. Flow cytometric analysis of 10,000 events was carried out to quantify cells with mitochondrial depolarization, excitation at 488 nm and detection of the emission with the green (530/15 nm) and the red (610/20 nm) filters.
# [8] = test system: SW620 cells
# Method: (§6) SW480 and SW620 cells were treated for 48 h and further collected by scraping. After centrifugation, the cell pellet was resuspended in Annexin V/FITC–PI and incubated in darkness for 20 min. Data were obtained through flow cytometry and analyzed with FlowJo 7.6.2 (Ashland, OR, USA). […] Cells with positive staining for PI were considered dead cells, late apoptotic cells, necroptotic cells or secondary necrotic cells. All assays were repeated twice [56].
# [9] = test system: SW620 cells; experiment: Cell death induction (Annexin V/FITC and PI), SW620; conditions: 48 h
# Method: as §6
# [10] = test system: SW480; experiment: Antiproliferative activity (sulforhodamine B), SW480; assay type: cell-based, human; conditions: dose- and time-dependent, from day 2 above 12.5 µM, from day 4 at 6.25 µM
# Method: as §2
# [11] = test system: SW480 cells; experiment: Cell cycle distribution (PI, flow cytometry), SW480; assay type: cell-based, human; conditions: 48 h, IC50 concentration
# Method: as §3
# [12] = test system: SW480 cells; experiment: Mitochondrial membrane potential and plasma membrane integrity (DiOC6/PI), SW480; assay type: cell-based, human; conditions: 48 h, IC50 concentration
# Method: as §4
# [13] = test system: SW480 cells; experiment: Cell death induction (Annexin V/FITC and PI), SW480; assay type: cell-based, human; conditions: 48 h
# Text: All assays were repeated twice.
# [14] = test system: caspase-3; experiment: Apoptotic biomarker ELISA, caspase-3 in SW620 cells; assay type: cell-based, human; conditions: 48 h, IC50 concentration, versus DMSO control
# Text: (§5) Afterwards, cells were scraped and lysed with Cell Lysis Buffer (1X, Ref. #9803). The supernatant was used for the determination of apoptotic biomarkers after the treatment with the hybrid molecules. Enzyme-linked immunosorbent assay (ELISA) kits were provided by Elabscience Biotechnology Co., (Wuhan, Hubei, China) (caspase-8) and Cell-Signaling Technology (Danvers, MA, USA) (caspase-3 and p53), following the manufacturer’s instructions.
# [15] = test system: caspase 8; experiment: Apoptotic biomarker ELISA, caspase 8 in SW620 cells; assay type: cell-based, human; conditions: 48 h, IC50 concentration, versus DMSO control
# Text: as §5
# [16] = test system: tumor suppressor protein p53; experiment: Apoptotic biomarker ELISA, p53 in SW620 cells; assay type: cell-based, human; conditions: 48 h, IC50 concentration, versus DMSO control
# Text: as §5
# [17] = test system: Hep-G2; conditions: cited from earlier work
# [18] = test system: RD; conditions: cited from earlier work
# [19] = test system: LU-1; conditions: cited from earlier work
# [20] = test system: FL; conditions: cited from earlier work
# [21] = test system: normal VERO cells; conditions: cited from earlier work
# [22] = test system: SW480 cells; set-up: method as in earlier work; conditions: 48 h post-treatment with 300 µM; cited from earlier work
# [23] = test system: MCF-7; set-up: method as in PMID 21389782; conditions: ER-positive breast cancer cell line; cited from earlier work
# [24] = test system: 21PT; set-up: method as in PMID 21389782; conditions: ER-positive breast cancer cell line; cited from earlier work
# [25] = test system: T47D; set-up: method as in PMID 21389782; conditions: ER-positive breast cancer cell line; cited from earlier work
compound,measurement,setting,value
"5-fluoro-1-((1-(3-((5-hydroxy-3-(4-hydroxyphenyl)-4-oxo-4H-chromen-7-yl)oxy)nonyl)-1H-1,2,3-triazol-4-yl)methyl)pyrimidine-2,4(1H,3H)-dione [4g]",IC50,[1],> 100 µM
same,Selectivity Index (SI) CHO-K1/620,[2],>2.71
same,Selectivity Index (SI) HaCaT/SW620,[2],>2.71
same,IC50,[2],36.8 ± 0.71 µM
same,IC50,[3],> 100 µM
same,IC50,[4],> 100 µM
same,Antiproliferative activity (cell viability),[5],significant decrease in the percentages of cell viability
same,Effect on cell cycle distribution,[6],important decrease in the population of cells in S-phase with a slight increase in G0/G1
same,Change in mitochondrial membrane potential,[7],do not induce significant changes in mitochondrial membrane potential
same,Q3 (viable cells per legend),[8],"0,00%"
same,Plasma membrane integrity / cell death,[9],caused a loss in membrane integrity
"O=c1[nH]c(=O)n(Cc2cn(CCOc3cc(O)c4c(=O)c(-c5ccc(O)cc5)coc4c3)nn2)cc1F [4a, 5-fluoro-1-((1-(3-((5-hydroxy-3-(4-hydroxyphenyl)-4-oxo-4H-chromen-7-yl)oxy)ethyl)-1H-1,2,3-triazol-4-yl)methyl)pyrimidine-2,4(1H,3H)-dione]",Selectivity Index (SI) CHO-K1/SW480,[1],1.13
same,Selectivity Index (SI) HaCaT/SW480,[1],1.03
same,IC50,"[1]; Homo sapiens, SW480",62.7 ± 7.26 µM
same,Selectivity Index (SI) CHO-K1/620,[2],1.41
same,Selectivity Index (SI) HaCaT/SW620,[2],1.28
same,IC50,"[2]; Homo sapiens, SW-620",50.6 ± 1.33 µM
same,IC50,"[3]; Homo sapiens, HaCaT",64.6 ± 1.07 µM
same,IC50,"[4]; Cricetulus griseus, CHO-K1",71.1 ± 10.5 µM
same,Antiproliferative activity (cell viability),[10],significant decrease in the percentages of cell viability
same,Antiproliferative activity (cell viability),[5],significant decrease in the percentages of cell viability
same,Cell cycle distribution G0/G1,[11]; representative histogram,46.4%
same,Cell cycle distribution G2/M,[11]; representative histogram,15.4%
same,Cell cycle distribution S-phase,[11]; representative histogram,36.4%
same,Cell cycle distribution Sub G0/G1,[11]; representative histogram,1.8%
same,Effect on cell cycle distribution,[11]; versus DMSO control,"important decrease in the population of G0/G1 after treatment with hybrid 4a, with a consequent increase in S-phase and G2/M"
same,Effect on cell cycle distribution,[6],important decrease in the population of cells in S-phase with a slight increase in G0/G1
same,Change in mitochondrial membrane potential,[12],do not induce significant changes in mitochondrial membrane potential
same,Change in mitochondrial membrane potential,[7],do not induce significant changes in mitochondrial membrane potential
same,Plasma membrane integrity / cell death,[13],caused a loss in membrane integrity
same,Protein levels of caspase-3,[14],significant increase in the active form of caspase-3
same,Protein levels of caspase 8,[15],significant increase in the levels of caspase 8
same,Protein levels of tumor suppressor protein Tp53,[16],important changes in the levels of the tumor suppressor protein Tp53
same,Plasma membrane integrity / cell death,[9],caused a loss in membrane integrity
CC(C)c1ccc(/C=C/C(=O)c2cc(Cn3cc(F)c(=O)[nH]c3=O)ccc2O)cc1 [B],IC50,[17],4.68 µM
same,IC50,[18],10.8 µM
same,IC50,[19],11.9 µM
same,IC50,[20],8.17 µM
same,IC50,[21],15 µM
CC(=O)Oc1ccccc1C(=O)OCCn1cc(COc2cc(O)c3c(=O)c(-c4ccc(O)cc4)coc3c2)nn1 [F],reduction in cell viability,[22],40.49%
O=c1c(-c2ccc(OCCn3cc(-c4ccccc4)nn3)cc2)coc2cc(OCCn3cc(-c4ccccc4)nn3)cc(O)c12 [E],IC50,[23],0.8 µM
same,IC50,[24],0.9 µM
same,IC50,[25],0.9 µM
